Literature values, collected in patent US20090215676A1, “Method of treatment” (priority 2005, published 2009).
Like-named read-outs stand apart in the source and are kept apart here.

How the values were obtained:
GH and IGF-1 levels = details: for acromegalic patients in whom GH and IGF-1 levels are reduced: human, in vivo; for share of responding patients whose GH and IGF-1 levels are reduced to normal levels (full responders): of the approximately 90% who respond
IGF-I levels = details: for daily pegvisomant dose needed: former pegvisomant registration studies
IGF-I [1] = details: once weekly pegvisomant dose of 80 mg, monotherapy
IGF-I [2] = details: alternate day administration, monotherapy; of 10 patients
insulin sensitivity = details: in vivo

Compound | acromegalic patients in whom GH and IGF-1 levels are reduced (GH and IGF-1 levels) | share of responding patients whose GH and IGF-1 levels are reduced to normal levels (full responders) (GH and IGF-1 levels) | daily pegvisomant dose needed (IGF-I levels; one subject) [mg] | daily dose needed by the average patient (IGF-I levels; pegvisomant monotherapy) | acromegalics with IGF-I levels normalized (IGF-I levels; pegvisomant monotherapy, listed as PEGVISOMANT) | acromegalics with IGF-I levels normalized (IGF-I levels; pegvisomant monotherapy, listed as Pegvisomant) [%] | daily pegvisomant dose needed (IGF-I levels; two subjects) [mg] | share of patients with IGF-I normalized (IGF-I [1]) | patients in whom the regimen failed to maintain IGF-I within the age-adjusted normal range (IGF-I [2]) [patients] | effect on insulin sensitivity (insulin sensitivity) | effect on tumor growth (tumor size; clinical experience) | effect on mean tumor size (tumor size; follow-up with pegvisomant monotherapy to date)
C[C@@H](O)[C@@H]1NC(=O)[C@H](CCCCN)NC(=O)[C@@H](Cc2c[nH]c3ccccc23)NC(=O)[C@H](Cc2ccccc2)NC(=O)[C@@H](NC(=O)[C@H](N)Cc2ccccc2)CSSC[C@@H](C(=O)N[C@H](CO)[C@@H](C)O)NC1=O [OCTREOTIDE] | approximately 90% | one-half to two-thirds | – | – | – | – | – | – | – | – | – | –
pegvisomant | – | – | 35 | approximately 20 mg | 75%-95% | > 90 | 40 | less than one-third | 7 | improves insulin sensitivity as compared to somatostatin analogues | does not prevent tumor growth in some patients | do not indicate that pegvisomant increases mean tumor size
CC(C)[C@@H]1NC(=O)[C@H](CCCCN)NC(=O)[C@@H](Cc2c[nH]c3ccccc23)NC(=O)[C@H](Cc2ccc(O)cc2)NC(=O)[C@@H](NC(=O)[C@H](N)Cc2ccc3ccccc3c2)CSSC[C@@H](C(=O)N[C@H](C(N)=O)[C@@H](C)O)NC1=O [LANREOTIDE] | approximately 90% | one-half to two-thirds | – | – | – | – | – | – | – | – | – | –
